Experimental data published in patent US20220365069A1, “ATP-BASED CELL SORTING AND HYPERPROLIFERATIVE CANCER STEM CELLS” (LUNELLA BIOTECH, INC., priority 2019, published 2022).

Legend:
[1] = tested on: ATP-low MCF7 cells; assay: 3D-mammosphere assay, drug sensitivity of ATP-low MCF7 sub-population; format: cell-based, human
Description: (§1) MCF7 cells in the ATP-high subpopulation show a multi-drug resistance phenotype. The 3D-mammosphere assay was used to explore the differential sensitivity of ATP-high and ATP-low MCF7 cell sub-populations to four different classes of drugs, using as a functional readout of drug-resistance. The drug classes include Tamoxifen, doxycycline, DPI, and Palbociclib.
(§2) Flow Cytometry after Vital Staining with ATP-Red 1: Human breast cancer cell lines were first grown either as a 2D-monolayer or as 3D-spheroids. Then the cells were collected and dissociated into a single-cell suspension, prior to analysis or sorting by flow-cytometry with a SONY SH800 Cell Sorter. Briefly, ATP-high and ATP-low sub-populations of cells were isolated after vital staining with the probe ATP-Red 1. The ATP-high and ATP-low cell sub-populations were selected by gating, within the ATP-Red 1 signal. Unless otherwise stated, cells with the lowest (bottom 5% or 10%) fluorescent signal, or the highest (top 5% or 10%) fluorescent signal, were collected as ATP-low and ATP-high, respectively. The cells outside the gates were discarded during sorting, due to the gate settings. However, such settings are often required to ensure high-purity during sorting. Data were analyzed with FlowJo 10.1 software.
(§3) 3D Anchorage Independent Growth Assay: A single cell suspension was prepared using enzymatic (lx Trypsin-EDTA, Sigma Aldrich, cat. #T3924), and manual disaggregation (25 gauge needle). Five thousand cells were plated with in mammosphere medium (DMEM-F12/B27/20ng/m1 EGF/PenStrep), under non-adherent conditions, in six wells plates coated with 2-hydroxyethylmethacrylate (poly-HEMA, Sigma, cat. #P3932). Cells were grown for 5 days and maintained in a humidified incubator at 37° C. at an atmospheric pressure in 5% (v/v) carbon dioxide/air. After 5 days, 3D spheroids with a diameter greater than 50 μm were counted using a microscope, fitted with a graticule eye-piece, and the percentage of cells which formed spheroids was calculated and normalized to one (1=100% MFE; mammosphere forming efficiency). Mammosphere assays were performed in triplicate and repeated three times independently.

[2] = tested on: ATP-high MCF7 cells; assay: 3D-mammosphere assay, drug sensitivity of ATP-high MCF7 sub-population; format: cell-based, human
Description: as §1, §2
as §3, with “Mammosphere assays were performed in triplicate and repeated three times independently.” left out

CC/C(=C(\c1ccccc1)c1ccc(OCCN(C)C)cc1)c1ccccc1 [Tamoxifen]
reduction of 3D-mammosphere formation ([1]; ATP-low MCF7 cells (bottom 5%), 1 μM): ~40%
reduction of 3D-mammosphere formation ([1]; ATP-low MCF7 cells (bottom 5%), 5 μM): > 90%
3D-mammosphere formation, of the vehicle-treated control levels ([2]; ATP-high MCF7 cells (top 5%), 5 μM): > 80%

c1ccc2c(c1)[I+]c1ccccc1-2 [DPI, diphenyleneiodonium]
reduction of 3D-mammosphere formation ([1]; ATP-low cells, 100 nM): > 90%
reduction of 3D-mammosphere formation ([2]; ATP-high cells, 100 nM): ~55%

CC(=O)c1c(C)c2cnc(Nc3ccc(N4CCNCC4)cn3)nc2n(C2CCCC2)c1=O [Palbociclib]
reduction of 3D-mammosphere formation ([1]; ATP-low cells, 12.5 nM): ~75%
reduction of 3D spheroid formation ([2]; ATP-high cells, 12.5 nM): -50%
